These results are taken from ChEMBL document CHEMBL2429722, “Synthesis of the non-peptidic snail toxin 6-bromo-2-mercaptotryptamine dimer (BrMT)(2), its lower and higher thio homologs and their ability to modulate potassium ion channels” (Bioorg Med Chem Lett, 2013).

Common to all, as to type: cell-based
Common to all, as to settings: Oocyte

The target of assay [1] is Potassium voltage-gated channel subfamily A member 1 (Mus musculus) (UniProt P16388). As to the kind of experiment: Inhibition of mouse Kv1.1 channel expressed in Xenopus laevis oocytes assessed as reduction of current amplitude at 8 uM after 2 mins by two-electrode voltage clamp assay relative to control.
Assay [2] has the same target. The assay is described as follows: Inhibition of mouse Kv1.1 channel expressed in Xenopus laevis oocytes assessed as reduction of current amplitude at 15 uM after 2 mins by two-electrode voltage clamp assay relative to control.
Assay [3] has the same target. As to the kind of experiment: Inhibition of mouse Kv1.1 channel expressed in Xenopus laevis oocytes assessed as -50 mV current-induced channel closing time at 15 uM after 2 mins by two-electrode voltage clamp assay (reference value: 14.6 +/- 0.3 ms).
For assay [4] the target is unchanged. The assay is described as follows: Inhibition of mouse Kv1.1 channel expressed in Xenopus laevis oocytes assessed as -50 mV current-induced channel closing time at 8 uM after 2 mins by two-electrode voltage clamp assay (reference value: 14.6 +/- 0.3 ms).
The target is the same in assay [5]. As to the kind of experiment: Inhibition of mouse Kv1.1 channel expressed in Xenopus laevis oocytes assessed as decrease in +60 mV current-induced time constant of activation at 8 uM after 2 mins by two-electrode voltage clamp assay relative to control.
Assay [6] shares this target. As to the kind of experiment: Inhibition of mouse Kv1.1 channel expressed in Xenopus laevis oocytes assessed as decrease in +60 mV current-induced time constant of activation at 15 uM after 2 mins by two-electrode voltage clamp assay relative to control.
For assay [7] the target is unchanged. The assay is described as follows: Inhibition of mouse Kv1.1 channel expressed in Xenopus laevis oocytes assessed as decrease in +60 mV current-induced time constant of activation at 20 uM after 2 mins by two-electrode voltage clamp assay relative to control.
The target is the same in assay [8]. As to the kind of experiment: Inhibition of mouse Kv1.1 channel expressed in Xenopus laevis oocytes assessed as reduction of current amplitude at 20 uM after 2 mins by two-electrode voltage clamp assay relative to control.
Assay [9] has the same target. As to the kind of experiment: Inhibition of mouse Kv1.1 channel expressed in Xenopus laevis oocytes assessed as -50 mV current-induced channel closing time at 20 uM after 2 mins by two-electrode voltage clamp assay (reference value: 14.6 +/- 0.3 ms).

Potassium voltage-gated channel subfamily A member 1 (Mus musculus), sequence (P16388 whole entry): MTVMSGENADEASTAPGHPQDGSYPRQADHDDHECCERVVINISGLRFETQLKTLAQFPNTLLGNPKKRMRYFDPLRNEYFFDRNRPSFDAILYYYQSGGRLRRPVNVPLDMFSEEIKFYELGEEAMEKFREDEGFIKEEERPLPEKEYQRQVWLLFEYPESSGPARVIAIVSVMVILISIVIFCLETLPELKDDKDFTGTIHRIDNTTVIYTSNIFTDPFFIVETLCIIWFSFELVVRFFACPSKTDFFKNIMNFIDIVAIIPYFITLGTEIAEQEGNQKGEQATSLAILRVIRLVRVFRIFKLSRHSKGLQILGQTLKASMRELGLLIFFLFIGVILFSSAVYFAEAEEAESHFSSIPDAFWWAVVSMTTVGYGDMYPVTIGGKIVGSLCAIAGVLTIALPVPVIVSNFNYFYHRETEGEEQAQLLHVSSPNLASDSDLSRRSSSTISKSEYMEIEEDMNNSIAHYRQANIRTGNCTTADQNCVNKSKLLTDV

As to `NCCc1c(SSc2[nH]c3cc(Br)ccc3c2CCN)[nH]c2cc(Br)ccc12`, in [1], the inhibition was determined as 15%. Moreover, the figures for the fold change (FC) in assay [2], in assay [5] and in [6] were 0.69, 3 and 5, respectively. Further, the TIME came to 3.81e-06 h in [3] and 4.94e-06 h in [4].
Take `NCCc1c(SSSc2[nH]c3cc(Br)ccc3c2CCN)[nH]c2cc(Br)ccc12`: the inhibition in assay [1] came out at 35%. The TIME in [4] is 4.06e-06 h. Besides, the fold change (FC) in [5] stood at 3.
With `NCCc1c(Sc2[nH]c3cc(Br)ccc3c2CCN)[nH]c2cc(Br)ccc12`, the fold change (FC) in assay [7] amounted to 5; in assay [8], 0.59. Besides, the TIME in assay [9] was determined as 9.28e-06 h.
